In US20130095059A1, “INHALED NO DONOR KMUPS DERIVATIVE PREVENTING ALLERGIC PULMONARY VASCULAR AND BRONCHIAL INFLAMMATION VIA SUPPRESSED CYTOKINES, INOS AND INFLAMMATORY CELL COUNTS IN ASTHMA MODEL” (priority 2007, published 2013):

Columns and labels:
PCNA = assay: PASMCs proliferation (PCNA) in MCT-treated lung tissues; format: in vivo, rats; details: day 21 after MCT injection
Protocol: We evaluated proliferating cell nuclear antigen (PCNA) to assess PASMCs proliferation in rats treated with MCT alone or with KMUP-1. Lung tissue sections were de-paraffinized in xylene and then treated with a graded series of alcohol washes, rehydrated in PBS (pH 7.5), and incubated with target retrieval solution (DAKO Co, Tokyo, Japan) in a water bath at 90° C. for 20 min. Endogenous peroxidase activity was blocked with H2O2 in PBS (3%, vol/vol) for 5 min. Slides were then washed in PBS, incubated for 30 min in a protein blocking solution, and incubated for 30 min with anti-PCNA mouse monoclonal antibody (PC-10, 1:200, Dako). Antibodies were washed off, and the slides were processed with an […] LSAB and system horseradish peroxidase detection kit (DAKO Co, Tokyo, Japan). Brown color was generated with a DAB substrate, and nuclei were counter-stained with hematoxylin.

MMP-9 = assay: Ovalbumine model, MMP-9 expression, zymography and immunostaining; format: in vivo, BALB/c mice
Protocol: In this long-term experiment, 6-8 week old BALB/c female mice were sensitized on days 1 and 8 by intra-peritoneal injection (i.p.) of ovalbumine (10 μg) (Sigma-Aldrich, Schnelldorf, Germany) adsorbed to 2 mg aluminum hydroxide (AlumInject; Perbio, Erembodegem, Belgium). Mice were divided into three groups. In Group 1, a control group was only exposed to saline nebulization by aerosol. The other 2 groups were subjected to ovalbumine (1%) nebulization. Before each challenge with ovalbumine, mice were either exposed to saline nebulization (Group 2) or KMUP-1 nebulization (5 mM) for 30 min by aerosol (Group 3).
The gelatinolytic activity of MMP-9 was measured by gelatin zymography as described previously (Cataldo D D, et al., 2002). Briefly, BALF (10 μl) was subjected to electrophoresis in 10% polyacrylamide gel containing gelatin (1 mg/ml). The gel was washed in 2.5% Triton X-100 to permit re-naturation of gelatinases and stained with Coomassie blue after overnight incubation. Destaining visualized clear zones of lysis against a blue background indicated the gelatinase activity (Hibbs, M S, et al., 1985).
The lung tissues were homogenized, washed with PBS and incubated in lysis buffer in addition to a protease inhibitor cocktail (Sigma, St. Louis, Mo.) to obtain extracts of lung proteins. A Western blot analysis was performed as described previously (Wu B N, et al., 2006). The samples were loaded to 10% SDS-PAGE gels and were separated at 120 V for 90 min. The blots were incubated with anti-eNOS antibody diluted at a ratio of 1:500, anti-sGCα1 antibody diluted at a ratio of 1:2000, anti-PKG antibody diluted at a ratio of 1:500, anti-VCAM-1 antibody diluted at a ratio of 1:500, anti-ICAM-1 antibody diluted at a ratio of 1:500, and anti-MMP-9 antibody diluted at a ratio of 1:600 overnight at 4° C. The membranes were stripped and re-blotted with anti-actin antibody (Sigma, St. Louis, Mo.) to verify the equal loading of protein in each lane.
Immunohistochemical analysis of eNOS enhancement by KMUP-1 was performed as follows. The lungs were perfused with saline followed by 10% formalin and then placed in 10% formalin for paraffin embedding. The lung tissues were cut into […] sections onto slides, dewaxed in 100% xylene, and then re-hydrated in graded alcohol solutions. Throughout the procedures, slides were washed as appropriate in PBS. Antigen retrieval was performed by microwave treatment for eNOS immunostaining. Sections were treated with 3% H2O2 (10 min) to inhibit endogenous peroxidases and incubated with normal serum (60 min) to reduce nonspecific binding of secondary antibodies. Sections were then incubated at 4° C. overnight with eNOS antibodies. After washing off unbounded primary antibodies, sections were incubated with secondary biotinylated antibodies against mouse or rabbit (DAKO Co., Japan) (60 min), followed by incubation in avidin/biotin/horseradish peroxidase complex (DAKO Co., Japan) (30 min) Subsequently, peroxidase activity was visualized by incubation (3 min) with 0.05% 3,3′-diaminobenzidine (DAKO Co., Japan), which gives a brown reaction product. The reaction was stopped by washing with water. The slides were counterstained with hematoxylin. For immunostaining of MMP-9 in lung tissue, the de-paraffinized 3-5 μm sections of lung tissue was performed as above eNOS, but using MMP-9 antibody.

5-HTT = 5-HTT expression in pulmonary artery and lung of MCT-treated rats; format: in vivo; details: 21 days after MCT
Protocol: The experiments were performed in adult male Wistar rats (300 to 350 g) in accordance with institutional guidelines after approval by the ethical review committee. PAH development and pulmonary expression of 5-HTT were examined in rats after 60 mg/kg single injection (i.p.) of monocrotaline (MCT). To assess the potential preventive effect of KMUP-1 on MCT-induced PAH and associated proliferation, we assigned rats at random to 2 groups of 8 animals which received KMUP-1 at 5 mg/kg/day p.o or 1 mg/kg/day i.p. All treatments were given once a day for 3 weeks after a single MCT injection (60 mg/kg i.p.) (Abe et al., 2004). On day 21, rats were anesthetized and pulmonary artery blood pressure (MPAP) was recorded as previously described. Lung tissues were dissected for Western blotting and immunohistochemistry.
For 5-HTT immunostaining, the lung slides were dewaxed in 100% xylene, and the sections were then rehydrated by successive immersion first in decreasing ethanol concentrations (100%, 90%, 80%, 50% and 30%) and then in water. Endogenous peroxidase activity was blocked using H2O2 in methanol (0.3% vol/vol) for 10 min. After three PBS washes, sections were pre-incubated in PBS supplemented with 3% (wt/vol) BSA for 30 min, then incubated overnight at 4° C. with goat polyclonal anti-5-HTT antibody (Abcam Biotechnology, Cambridge, UK) diluted to 1:1000 in 1×PBS, 0.02% BSA. […]

Compound: Cn1c(=O)c2c(ncn2CCN2CCN(c3ccccc3Cl)CC2)n(C)c1=O [KMUP-1, 7-[2-[4-(2-chlorophenyl)piperazinyl]ethyl]-1,3-dimethylxanthine]
- number of PCNA-positive cells in pulmonary artery walls (PCNA): markedly lower
- increased MMP-9 expression by ovalbumine sensitization (MMP-9; 28-day experiment, nebulization): significantly reduced
- zymography of MMP-9 (MMP-9; BALF, versus ovalbumine): decreased
- MMP-9 positive cells (immunostaining) (MMP-9; ovalbumine-sensitized and -challenged mice): hardly detected
- 5-HTT protein expression in lung tissue (Western blotting) (5-HTT): significantly reduced
- 5-HTT expression in pulmonary artery (immunochemistry) (5-HTT; 5 mg/kg p.o. and 1 mg/kg i.p.): significantly decreased
